The series relates to CCRIS mutagenicity, Ames/micronucleus/aberration tests. Briefly: CCRIS mutagenicity studies.
The mark [1] stands for this setting: Test System: AMES SALMONELLA TYPHIMURIUM, Strain/Indicator: TA98, Metabolic Activation: NONE, Method: PREINCUBATION
The mark [2] stands for this setting: Test System: AMES SALMONELLA TYPHIMURIUM, Strain/Indicator: TA98, Metabolic Activation: NONE, Method: STANDARD PLATE.
[3] abbreviates: Test System: AMES SALMONELLA TYPHIMURIUM, Strain/Indicator: TA100, Metabolic Activation: NONE, Method: PREINCUBATION
The mark [4] stands for this setting: Test System: AMES SALMONELLA TYPHIMURIUM, Strain/Indicator: TA100, Metabolic Activation: NONE, Method: STANDARD PLATE.

These results are taken from PubChem BioAssay AID1259407 (Chemical Carcinogenesis Research Information System (CCRIS), 2018).

Active and inactive are the calls of the source. How the calls were made is not given here.

`C=CCc1ccc(O)c(OC)c1`: the mutagenic call runs as follows: (End Point: IN VITRO CHROMOSOMAL ABERRATIONS, Test System: CHINESE HAMSTER OVARY CELLS, Metabolic Activation: NONE) “inactive; negative”; (End Point: IN VITRO CHROMOSOMAL ABERRATIONS, Test System: CHINESE HAMSTER OVARY CELLS, Metabolic Activation: RAT, LIVER, S-9, AROCLOR 1254) “active; positive”; (End Point: IN VITRO CHROMOSOMAL ABERRATIONS, Test System: CHO-WBL CELLS, Metabolic Activation: RAT, LIVER, S-9, PHENOBARBITAL AND BETA-NAPHTHOFLAVONE) “active; positive (at 24 hr)”; (End Point: IN VITRO CHROMOSOMAL ABERRATIONS, Test System: SYRIAN HAMSTER EMBRYO (SHE) CELLS, Metabolic Activation: NONE) “active; positive (structural changes)”; (End Point: IN VITRO CHROMOSOMAL ABERRATIONS, Test System: SYRIAN HAMSTER EMBRYO (SHE) CELLS, Metabolic Activation: RAT, LIVER, S-9) “active; positive (structural changes)”; (End Point: IN VIVO MICRONUCLEUS, Test System: BONE MARROW POLYCHROMATIC ERYTHROCYTES, Species: MOUSE, Strain/Sex: DDY/MALE, Route: IP) “inactive; negative”. Besides, the mutagenic call (Test System: AMES SALMONELLA TYPHIMURIUM, Strain/Indicator: TA97, Metabolic Activation: NONE, Method: PREINCUBATION (120 MIN)) is “inactive; negative”; the mutagenic call (Test System: AMES SALMONELLA TYPHIMURIUM, Strain/Indicator: TA97, Metabolic Activation: S-9, Method: PREINCUBATION (120 MIN)) is “inactive; negative”; the mutagenic call (Test System: AMES SALMONELLA TYPHIMURIUM, Strain/Indicator: TA98, Metabolic Activation: HAMSTER, LIVER, S-9, AROCLOR 1254, Method: PREINCUBATION) is “inactive; negative”; the mutagenic call under setting [1] is “inactive; negative”; the mutagenic call (Test System: AMES SALMONELLA TYPHIMURIUM, Strain/Indicator: TA98, Metabolic Activation: NONE, Method: PREINCUBATION (120 MIN)) was “inactive; negative”; the mutagenic call under setting [2] is “inactive; negative”. In addition, the mutagenic call reads like this: (Test System: AMES SALMONELLA TYPHIMURIUM, Strain/Indicator: TA98, Metabolic Activation: RAT, LIVER, S-9, AROCLOR 1254, Method: PREINCUBATION) “inactive; negative”; (Test System: AMES SALMONELLA TYPHIMURIUM, Strain/Indicator: TA98, Metabolic Activation: RAT, LIVER, S-9, AROCLOR 1254, Method: STANDARD PLATE) “inactive; negative”; (Test System: AMES SALMONELLA TYPHIMURIUM, Strain/Indicator: TA98, Metabolic Activation: S-9, Method: PREINCUBATION (120 MIN)) “inactive; negative”; (Test System: AMES SALMONELLA TYPHIMURIUM, Strain/Indicator: TA98, Metabolic Activation: S-9, Method: STANDARD PLATE) “inactive; negative”; (Test System: AMES SALMONELLA TYPHIMURIUM, Strain/Indicator: TA100, Metabolic Activation: HAMSTER, LIVER, S-9, AROCLOR 1254, Method: PREINCUBATION) “inactive; negative”; under setting [3], “inactive; negative”. In addition, the mutagenic call (Test System: AMES SALMONELLA TYPHIMURIUM, Strain/Indicator: TA100, Metabolic Activation: NONE, Method: PREINCUBATION (120 MIN)) is “inactive; negative”; the mutagenic call under setting [4] was “inactive; negative”; the mutagenic call (Test System: AMES SALMONELLA TYPHIMURIUM, Strain/Indicator: TA100, Metabolic Activation: RAT, LIVER, S-9, AROCLOR 1254, Method: PREINCUBATION) is “inactive; negative”; the mutagenic call (Test System: AMES SALMONELLA TYPHIMURIUM, Strain/Indicator: TA100, Metabolic Activation: RAT, LIVER, S-9, AROCLOR 1254, Method: STANDARD PLATE) was “inactive; negative”; the mutagenic call (Test System: AMES SALMONELLA TYPHIMURIUM, Strain/Indicator: TA100, Metabolic Activation: S-9, Method: PREINCUBATION (120 MIN)) is “inactive; negative”; the mutagenic call (Test System: AMES SALMONELLA TYPHIMURIUM, Strain/Indicator: TA100, Metabolic Activation: S-9, Method: STANDARD PLATE) was “inactive; negative”. The mutagenic call is, setting by setting: (Test System: AMES SALMONELLA TYPHIMURIUM, Strain/Indicator: TA1535, Metabolic Activation: HAMSTER, LIVER, S-9, AROCLOR 1254, Method: PREINCUBATION) “inactive; negative”; (Test System: AMES SALMONELLA TYPHIMURIUM, Strain/Indicator: TA1535, Metabolic Activation: NONE, Method: PREINCUBATION) “inactive; negative”; (Test System: AMES SALMONELLA TYPHIMURIUM, Strain/Indicator: TA1535, Metabolic Activation: NONE, Method: STANDARD PLATE) “inactive; negative”; (Test System: AMES SALMONELLA TYPHIMURIUM, Strain/Indicator: TA1535, Metabolic Activation: PAPS, Method: STANDARD PLATE) “inactive; negative”; (Test System: AMES SALMONELLA TYPHIMURIUM, Strain/Indicator: TA1535, Metabolic Activation: RAT, LIVER, S-9, AROCLOR 1254, PAPS, Method: STANDARD PLATE) “active; positive”; (Test System: AMES SALMONELLA TYPHIMURIUM, Strain/Indicator: TA1535, Metabolic Activation: RAT, LIVER, S-9, AROCLOR 1254, Method: PREINCUBATION) “inactive; negative”. Further, the mutagenic call by setting is: (Test System: AMES SALMONELLA TYPHIMURIUM, Strain/Indicator: TA1535, Metabolic Activation: RAT, LIVER, S-9, AROCLOR 1254, Method: STANDARD PLATE) “inactive; negative”; (Test System: AMES SALMONELLA TYPHIMURIUM, Strain/Indicator: TA1537, Metabolic Activation: HAMSTER, LIVER, S-9, AROCLOR 1254, Method: PREINCUBATION) “inactive; negative”; (Test System: AMES SALMONELLA TYPHIMURIUM, Strain/Indicator: TA1537, Metabolic Activation: NONE, Method: PREINCUBATION) “inactive; negative”; (Test System: AMES SALMONELLA TYPHIMURIUM, Strain/Indicator: TA1537, Metabolic Activation: NONE, Method: STANDARD PLATE) “inactive; negative”; (Test System: AMES SALMONELLA TYPHIMURIUM, Strain/Indicator: TA1537, Metabolic Activation: RAT, LIVER, S-9, AROCLOR 1254, Method: PREINCUBATION) “inactive; negative”; (Test System: AMES SALMONELLA TYPHIMURIUM, Strain/Indicator: TA1537, Metabolic Activation: RAT, LIVER, S-9, AROCLOR 1254, Method: STANDARD PLATE) “inactive; negative”. Besides, the mutagenic call by setting is: (Test System: AMES SALMONELLA TYPHIMURIUM, Strain/Indicator: TA1538, Metabolic Activation: NONE, Method: STANDARD PLATE) “inactive; negative”; (Test System: AMES SALMONELLA TYPHIMURIUM, Strain/Indicator: TA1538, Metabolic Activation: RAT, LIVER, S-9, AROCLOR 1254, Method: STANDARD PLATE) “inactive; negative”; (Test System: MOUSE LYMPHOMA, Strain/Indicator: L5178Y (TK+/TK-), Metabolic Activation: NONE, Method: MICROWELL) “active; positive”; (Test System: MOUSE LYMPHOMA, Strain/Indicator: L5178Y (TK+/TK-), Metabolic Activation: S-9, Method: MICROWELL) “active; positive”.

`CC1(C2CO2)CO1` (stereo unspecified): the mutagenic call is “active; positive” under setting [2] and “active; positive” under setting [4].

On to `Clc1nncc2cccnc12`, for which the mutagenic call runs as follows: under setting [1], “inactive; negative”; (Test System: AMES SALMONELLA TYPHIMURIUM, Strain/Indicator: TA98, Metabolic Activation: RAT, LIVER, S-9, PCB, Method: PREINCUBATION) “active; positive”; under setting [3], “inactive; negative”; (Test System: AMES SALMONELLA TYPHIMURIUM, Strain/Indicator: TA100, Metabolic Activation: RAT, LIVER, S-9, PCB, Method: PREINCUBATION) “active; positive”.
